Test results taken from patent US20250302990A1, “ENHANCING NON-VIRAL DNA DELIVERY AND EXPRESSION” (Spark Therapeutics, Inc., priority 2022, published 2025).

Experiments:
Wild type mice = test: Survival after hFIX DNA-LNP dosing, with or without oral JAK inhibitors (Example 3); assay type: in vivo, mouse; details: 30 minutes prior to and days 1, 2, 3 post 2.5 mpk hFIX DNA-LNP (bCKK-E12 LNP), followed out to 30 days, vs untreated
Method: FIG. 6 illustrates survival of WT mice dosed systemically with 2.5 mpk (50 μg) of human factor IX (hFIX) transgene-encoding plasmid DNA encapsulated in lipid nanoparticles; and either untreated or treated with ruxolitinib or baricitinib orally 30 minutes prior to, and on days 1, 2, and 3 post systemic dosing with hFIX transgene encoding plasmid DNA encapsulated in lipid nanoparticles.
Wild type mice were untreated, or treated (n=5 per group) with JAK inhibitors ruxolitinib or baricitinib orally 30 minutes prior to, and days 1, 2, and 3 post systemic dosing with 2.5 mpk (50 μg) of human factor IX (hFIX) transgene-encoding plasmid DNA encapsulated in lipid nanoparticles (DNA-LNP). The LNP used in the study was formulated with bCKK-E12. Survival of mice in each group was followed out to 30 days (FIG. 6).

Wild type C57BL/6 mice = test: Transgenic hFIX protein in blood plasma by ELISA one week post-DNA-LNP, anti-IFNAR and/or baricitinib (Example 4); assay type: in vivo, mouse; details: 2.5 mpk hFIX DNA-LNP (bCKK-E12) IV; anti-IFNAR 15 mpk IP 3 hours prior; baricitinib oral 90 minutes prior and daily days 1-6; one week post-dosing
Method: FIG. 7 illustrates FIX protein levels in blood plasma of mice not treated; or treated orally with baricitinib (“Bar”) 90 minutes prior to DNA-LNP dosing, and then daily on days 1-6 post-DNA-LNP dosing. Transgenic hFIX protein in blood plasma of surviving mice was measured by ELISA one-week post-DNA-LNP dosing.
Wild type C57BL/6 mice were untreated, or treated (n=5 per group) once IP with 15 mpk anti-mouse IFNAR blocking antibody (“anti-IFNAR”; clone MAR1-5A3, described in Dunn et al., Nat Immunol. 2005 July; 6(7):722-9) 3 hours prior to systemically (IV tail injections) dosing with 2.5 mpk (50 μg) of human factor IX (hFIX) transgene-encoding plasmid DNA encapsulated in lipid nanoparticles (DNA-LNP). The LNP used in the study was formulated with bCKK-E12. Mice were treated or not treated with the oral JAK inhibitor baricitinib (“Bar”) 90 minutes prior to DNA-LNP dosing, and then daily on days 1-6 post-DNA-LNP dosing. Transgenic hFIX protein in blood plasma of surviving mice was measured by ELISA one-week post-DNA-LNP dosing (FIG. 7).

| Compound | survival of mice dosed with DNA-LNP (Wild type mice) | DNA-LNP transgene efficacy (hFIX protein in blood plasma, ELISA) (Wild type C57BL/6 mice) |
| --- | --- | --- |
| N#CC[C@H](C1CCCC1)n1cc(-c2[nH]cnc3nccc2-3)cn1 [Ruxolitinib] | dramatically improved survival | – |
| Baricitinib | dramatically improved survival | did not boost transgene efficacy |
